Data as given in BindingDB's records for doi:10.1016/j.bmcl.2015.04.045 (Chungbuk National University, 2015).

Biological target: T1, Pancreatic triacylglycerol lipase (Sus scrofa, UniProt P00591)
T1 sequence (P00591 whole entry): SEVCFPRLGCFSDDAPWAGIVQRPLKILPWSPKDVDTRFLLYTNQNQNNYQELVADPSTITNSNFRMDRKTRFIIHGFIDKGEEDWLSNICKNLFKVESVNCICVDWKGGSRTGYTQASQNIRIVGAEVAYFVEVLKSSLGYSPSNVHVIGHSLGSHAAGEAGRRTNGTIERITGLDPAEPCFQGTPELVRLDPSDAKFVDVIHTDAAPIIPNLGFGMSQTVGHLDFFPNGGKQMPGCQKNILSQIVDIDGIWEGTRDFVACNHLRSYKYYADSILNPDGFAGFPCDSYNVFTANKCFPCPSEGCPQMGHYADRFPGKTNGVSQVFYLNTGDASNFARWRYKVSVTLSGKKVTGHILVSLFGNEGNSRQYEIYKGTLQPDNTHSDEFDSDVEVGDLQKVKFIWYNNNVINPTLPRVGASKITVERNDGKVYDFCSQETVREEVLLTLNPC
Assay: Inhibition of porcine pancreatic lipase using p-nitrophenylbutyrate as substrate assessed as formation of p-nitrophenol preincubated for 15 mins followed by substrate addition measured after 15 mins

Row | Structure (SMILES) | IC50 [µM]
1 | O=c1cc(O)cc2oc(-c3ccc(O)cc3)c(O[C@@H]3O[C@H](CO)[C@@H](O)[C@H](O)[C@H]3O)c(O)c1-2 [3,4',5,7-Tetrahydroxyflavone-3-glucoside] | > 70
2 | O=c1cc(O)cc2oc(-c3ccc(O)c(O)c3)c(O[C@@H]3O[C@H](CO)[C@@H](O)[C@H](O)[C@H]3O)c(O)c1-2 [Quercetin 3-O-beta-D-glucoside] | > 70
